This note sets out measurements from ChEMBL document CHEMBL1201862, “PubChem BioAssay data set” (2004).

Activity calls are given as the source filed them.

The nature of assay [1]: A cytotoxicity screen of small molecule inhibitors of the PhoP region in Salmonella typhi identified in the primary screen. [Related pubchem assays: 1850, 1864, 1985 ]. It counts as functional.
Assay [2] deals with Heat shock protein HSP 90-alpha (Homo sapiens, UniProt P07900). It counts as functional, organism-based.
Assay [3] can be described thus: THP-1 cell cytotoxicity, dose response, cytotoxicity control for Vif-APOBEC3G degradation inhibitor project, THP-1 cells (AID 1117359). It is filed as functional. Conditions: Human immunodeficiency virus 1, THP-1.
The test system of the next assay is Escherichia coli. The experiment in a line: microbe, parasite or virus in culture.
In the next assay the target is Troponin, cardiac muscle (Homo sapiens, UniProt P19429+P45379+P63316). The experiment in a line: Fluorescence-based biochemical high throughput dose response assay for activators of the calcium sensitivity of cardiac Regulated Thin Filaments (RTF). [Related pubchem assays (depositor defined):AID493008, AID493018, AID504382, AID504383]. It is filed as protein-complex assay.

The target in assay [4] is Eukaryotic translation initiation factor 4E (Mus musculus, UniProt P63073). Put plainly: eIF4E–eIF4G protein interaction inhibitors, dose response, biochemical, TR-FRET (AID 855).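 Further: potency for disrupting eIF4E binding to eIF4GI seen as loss of FRET.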 It counts as functional.
The target of assay [5] is Glyceraldehyde-3-phosphate dehydrogenase (Homo sapiens, UniProt P04406).
Assay [6] in a line: inhibitors of intracellular T. cruzi replication, confirmation, NIH3T3 host cells, beta-gal luminescence (AID 2044).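 Further: intracellular parasites grown in NIH/3T3 mouse fibroblasts as host cells; luminescent beta-galactosidase reporter signal from transgenic T. cruzi replicating inside host cells; inhibitors lower the luminescence signal.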 It counts as functional, cell-based.
Assay [7] in a line: cytotoxicity toward NIH3T3 fibroblasts, dose response, counter-screen, cell-based, ATP luminescence, mouse fibroblasts (AID 2010).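 Further: cells exposed to compound for about 90 hours before reading.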 It is filed as functional. For orientation: A counterscreen serves to expose hits that act by an unwanted route or on another target.
The nature of assay [8]: cytotoxicity in HEK-293T cells, dose response, cytotoxicity control for BCR NF-kB inhibitor project, luminescence, B-cell screen hits (AID 489021).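 Further: HEK-293T cells carrying an NF-kB luciferase reporter; cells exposed to compound for about 14 hours before viability readout.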 It counts as functional, cell-based.
The target of a further assay is T1, Protein skinhead-1 (Caenorhabditis elegans, UniProt P34707).
T1 sequence (P34707 whole entry): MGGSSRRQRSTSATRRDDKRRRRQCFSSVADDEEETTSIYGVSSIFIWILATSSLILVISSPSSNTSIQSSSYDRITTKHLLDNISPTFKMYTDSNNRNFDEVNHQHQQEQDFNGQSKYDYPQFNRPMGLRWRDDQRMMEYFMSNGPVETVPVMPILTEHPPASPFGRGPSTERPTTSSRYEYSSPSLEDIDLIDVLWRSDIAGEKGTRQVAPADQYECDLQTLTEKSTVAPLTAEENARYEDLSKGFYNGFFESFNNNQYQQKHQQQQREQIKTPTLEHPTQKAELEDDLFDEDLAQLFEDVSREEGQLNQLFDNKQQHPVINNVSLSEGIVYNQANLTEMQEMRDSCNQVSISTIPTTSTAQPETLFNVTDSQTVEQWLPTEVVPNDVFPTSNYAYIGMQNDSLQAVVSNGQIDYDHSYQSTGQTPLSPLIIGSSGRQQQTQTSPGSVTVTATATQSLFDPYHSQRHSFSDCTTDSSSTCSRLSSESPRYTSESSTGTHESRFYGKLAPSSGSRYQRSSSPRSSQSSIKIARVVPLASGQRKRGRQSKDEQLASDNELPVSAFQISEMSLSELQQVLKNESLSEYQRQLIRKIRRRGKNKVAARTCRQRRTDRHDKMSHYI
It counts as functional.

Assay [9] addresses T2, SUMO-activating enzyme (Homo sapiens, UniProt Q9UBT2). Put plainly: SUMOylation inhibitor hit validation, confirmation, SUMOylation inhibitor project, biochemical, AlphaScreen (AID 2018). It counts as functional.
The target in assay [10] is T2, SUMO-activating enzyme. The experiment in a line: inhibitors of in vitro SUMOylation cascade, primary screen, biochemical, HTRF, uHTS (AID 2006). It counts as protein-complex assay.
Assay [11] concerns the target T3, Replicative DNA helicase DnaB (Mycobacterium tuberculosis, UniProt P9WMR3).
T3 sequence (P9WMR3 whole entry): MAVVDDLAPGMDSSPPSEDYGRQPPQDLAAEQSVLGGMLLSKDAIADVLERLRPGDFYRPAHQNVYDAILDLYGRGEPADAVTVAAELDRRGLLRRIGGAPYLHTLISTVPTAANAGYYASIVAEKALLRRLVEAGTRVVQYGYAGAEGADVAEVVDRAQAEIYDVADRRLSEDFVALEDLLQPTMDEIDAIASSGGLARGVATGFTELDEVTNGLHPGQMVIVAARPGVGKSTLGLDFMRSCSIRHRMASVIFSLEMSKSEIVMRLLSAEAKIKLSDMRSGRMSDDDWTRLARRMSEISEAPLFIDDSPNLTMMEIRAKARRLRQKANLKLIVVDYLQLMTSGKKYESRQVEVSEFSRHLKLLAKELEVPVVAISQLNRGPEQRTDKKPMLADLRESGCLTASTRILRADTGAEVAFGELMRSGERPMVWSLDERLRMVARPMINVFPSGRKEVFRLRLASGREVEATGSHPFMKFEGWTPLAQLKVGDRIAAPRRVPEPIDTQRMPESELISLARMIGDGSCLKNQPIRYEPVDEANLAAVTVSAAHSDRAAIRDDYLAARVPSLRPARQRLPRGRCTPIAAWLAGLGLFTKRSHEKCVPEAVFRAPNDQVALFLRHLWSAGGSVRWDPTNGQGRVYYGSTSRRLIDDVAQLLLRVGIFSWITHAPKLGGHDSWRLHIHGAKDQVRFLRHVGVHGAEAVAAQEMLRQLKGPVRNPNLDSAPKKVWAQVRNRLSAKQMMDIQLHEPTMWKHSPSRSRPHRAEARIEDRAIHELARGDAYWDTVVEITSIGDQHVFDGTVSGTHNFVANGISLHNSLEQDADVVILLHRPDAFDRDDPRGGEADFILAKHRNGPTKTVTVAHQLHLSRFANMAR
The experiment in a line: DnaB intein splicing inhibitors, dose response, biochemical, cell-free fluorescence (AID 449749). It counts as functional.

The nature of assay [12]: Luminescence Cell-Based Dose Response HTS to Identify Activators of Luciferase Translation or Activity in H4 […] Cells. [Related pubchem assays: 1829 (Project Summary), 1814 (Primary HTS)]. It counts as functional.
The subject of the next assay is H4. Put plainly: Luminescence Cell-Based Dose Response HTS to Identify Activators of 5'UTR Stem-Loop Driven Prion Protein mRNA Translation in H4 Neuroglioblastoma Cells. [Related pubchem assays: 1829 (Project Summary), 1814 (Primary HTS)]. It is filed as functional. Conditions: Homo sapiens.
A further assay concerns the target T4, Protein RecA (Mycobacterium tuberculosis, UniProt P9WHJ3).
T4 sequence (P9WHJ3 whole entry): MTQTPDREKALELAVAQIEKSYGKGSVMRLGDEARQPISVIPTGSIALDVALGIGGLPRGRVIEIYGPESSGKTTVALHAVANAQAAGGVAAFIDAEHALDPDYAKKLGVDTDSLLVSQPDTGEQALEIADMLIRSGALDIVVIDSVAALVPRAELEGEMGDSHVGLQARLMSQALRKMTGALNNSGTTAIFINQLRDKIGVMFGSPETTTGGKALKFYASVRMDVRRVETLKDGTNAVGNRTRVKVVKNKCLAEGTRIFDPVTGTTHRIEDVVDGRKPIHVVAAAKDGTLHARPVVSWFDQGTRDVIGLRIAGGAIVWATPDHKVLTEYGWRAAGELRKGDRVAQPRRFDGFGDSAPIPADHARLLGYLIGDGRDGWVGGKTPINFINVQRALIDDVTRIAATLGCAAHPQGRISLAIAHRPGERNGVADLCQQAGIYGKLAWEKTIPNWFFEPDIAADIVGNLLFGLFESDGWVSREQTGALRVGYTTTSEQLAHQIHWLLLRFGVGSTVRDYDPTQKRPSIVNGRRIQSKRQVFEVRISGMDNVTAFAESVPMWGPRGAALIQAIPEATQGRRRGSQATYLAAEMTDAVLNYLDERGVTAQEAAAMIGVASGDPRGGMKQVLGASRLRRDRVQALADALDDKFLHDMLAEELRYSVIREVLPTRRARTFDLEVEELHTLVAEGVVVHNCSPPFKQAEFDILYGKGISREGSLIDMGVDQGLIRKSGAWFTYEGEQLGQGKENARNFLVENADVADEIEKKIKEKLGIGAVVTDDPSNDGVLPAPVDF
The experiment in a line: Fluorescence Cell-Free Homogeneous Dose Retest to Identify Inhibitors of RecA-Intein Splicing Activity. [Related pubchem assays (depositor defined):AID2097, AID2223, AID489010, AID492950]. It is filed as functional.

Assay [13] is described as follows: Luminescence Cell-Based Dose Confirmation HTS to Identify Activators of 5'UTR Stem-Loop Driven Alpha-Synuclein mRNA Translation in H4 Neuroglioblastoma Cells. [Related pubchem assays: 1829 (Project Summary), 1814 (Primary HTS)]. It is filed as functional.
The next assay concerns Vero. Put plainly: cells. The following applies: Chlorocebus sabaeus. It is filed as functional.
A short description of assay [14]: HEp-2 cell cytotoxicity, dose response, cytotoxicity control for RSV inhibitor project, HTS (AID 2410). It counts as functional. The following applies: human respiratory syncytial virus.
The nature of another assay: cells. It counts as functional.

The term EC50 denotes the concentration needed to bring the measured effect to its halfway point. For the compound `CC(C)(C)Nc1c2ccccc2nc2ccccc12`, the EC50 in assay [1] is > 50 µM (active). By AC50 is commonly meant the concentration giving half of the maximal activity seen. What is called CC50 is the concentration giving 50% cytotoxicity. For `N#C/C(=C\c1ccc([N+](=O)[O-])o1)C(=O)Nc1ccc(F)cc1`, the AC50 in assay [2] is 0.444 µM (active). Moreover, the CC50 in assay [3] was > 40 µM (active). Consider `O=C(CCNS(=O)(=O)c1cccc2nonc12)N1CCN(c2cccc(Cl)c2)CC1`, for which the EC50 in [1] was > 50 µM (active). Turning to `O=C(Nc1ccc2c(c1)OCCO2)C1CCCN(S(=O)(=O)c2cccnc2)C1` (centres undefined), in the assay with Escherichia coli, the AC50 was 52.7 µM (active). As a reminder, the IC50 is the concentration at which inhibition is half-maximal. Regarding `NC(=O)NC(=O)COC(=O)c1cccc(NS(=O)(=O)/C=C/c2ccccc2)c1`, the EC50 on Troponin, cardiac muscle is > 71.5 µM (inactive). The IC50 in assay [4] was 50 µM (inactive). As to `O=C1C(Cl)=C(N2CCN(Cc3ccc4c(c3)OCO4)CC2)C(=O)N1c1ccc(Cl)nc1`, the IC50 in assay [5] is > 50 µM (inconclusive). As to `CC(=O)c1c(C)[nH]c(C(=O)CSc2nnc3ccccn23)c1C`, the AC50 in the assay on Escherichia coli was 27 µM (active).

For `O=C(CSC1=NS(=O)(=O)c2ccccc2N1)N1CCCCC1`, at Troponin, cardiac muscle, the EC50 was > 71.5 µM (inactive). For the compound `O=C(NC1CC1)c1ccc(N2CCCCC2)c([N+](=O)[O-])c1`, the AC50 with Escherichia coli was 73.1 µM (active).

As to `CCN1CCN(c2ccc(S(=O)(=O)N3CCCCC3)cc2NC(=O)Cc2ccc(Cl)c(Cl)c2)CC1`, the EC50 was 0.162 µM (active) in [6] and 6.52 µM (active) in assay [7]. The CC50 in [3] is 21.2 µM (active). With `COC(=O)C(C)Oc1cc(C)cc2oc(=O)c3c(c12)CCC3` (centres undefined), the IC50 in [8] is > 80 µM (inactive). For the compound `Cc1cc(C)c2nc(NC(=O)[C@@H](NC(=O)c3cccc(S(=O)(=O)N4CCOCC4)c3)C(C)C)sc2c1`, in [8], the IC50 was > 80 µM (inactive).

Take `O=C(Nc1ccccc1)NC1CS(=O)(=O)CC1O` (centres undefined): the EC50 on Troponin, cardiac muscle is > 71.5 µM (inactive). As to `O=[N+]([O-])c1ccc2nc(-c3ccccc3)oc2c1`, the IC50 at Protein skinhead-1 is 63.6 µM (inactive). Also, in assay [3], the CC50 was > 40 µM (active). Take `NC(=O)CC(NC(=O)Cc1ccc(Br)cc1)c1ccc(N2CCC(Br)CC2)c([N+](=O)[O-])c1` (centres undefined): the IC50 on SUMO-activating enzyme [9] was 28.3 µM (active); on SUMO-activating enzyme [10] it was 34.5 µM (active).

With `CC(C)c1n[nH]c2c1C(c1ccco1)C(C#N)=C(N)O2` (centres undefined), the AC50 in assay [11] was 32.4 µM (active). The EC50 in assay [12] was > 120 µM (not active); in the assay on H4, 92.5 µM (active); at Protein RecA, 3.05 µM (active); in assay [13], > 120 µM (not active). In addition, in assay [8], the IC50 was > 80 µM (inactive).

As for `N=c1c(C(=O)NC2CCCC2)cc2c(=O)n3ccccc3nc2n1CCN1CCOCC1`, the IC50 in assay [8] is > 80 µM (inactive). Take `N#Cc1ccc(S(=O)(=O)NC2CCCCNC2=O)cc1` (centres undefined): at Troponin, cardiac muscle, the EC50 is > 71.4 µM (inactive). Turning to `COc1ccc(-c2[nH]ncc2CNC(C)c2ccccc2Cl)cc1F` (centres undefined), the half-maximal cytotoxic concentration (CC50) in the assay on Vero was > 25 µM (active).

As for `C[C@H]1CN(C2=C(Cl)C(=O)N(c3ccc(C(F)(F)F)cc3)C2=O)CCN1`, the IC50 in assay [5] was > 50 µM (inconclusive). Consider `Cc1nc([N+](=O)[O-])c(Sc2nc3ccccc3n2C)n1Cc1ccccc1`, for which the results for the cytotoxic concentration (CC50) (in [14]; in the assay on Vero) were 13.5 µM (active) and 20.8 µM (active), respectively. Take `CCN(CC)CCOC(=O)c1ccc(NC(=O)CCCN2C(=O)S/C(=C/c3ccc(OC)cc3)C2=S)cc1`: the IC50 in [8] is > 80 µM (inactive). Consider `Cc1cs/c(=N\c2cccnc2)n1CC1CCCCC1`, for which, in “cells”, the IC50 is > 50 µM (active). For the compound `CCOc1ccccc1NC(=O)Nc1ccncc1`, in assay [1], the EC50 was > 50 µM (active). With `O=C(COC(=O)c1ccc(O)cc1O)c1ccc2c(c1)OCO2`, the IC50 in “cells” is 18.2 µM (active). Take `O=C(Cc1ccc(F)cc1)NC1CCCC1`: the EC50 in [1] is > 50 µM (active). Turning to `COc1ccc(-c2nc3ccc(C)cc3c(=O)o2)cc1OC`, in the assay “cells”, the IC50 was 7.49 µM (active).
